Experiments:
[1] = tested on: AP C3 convertase formation; experiment: Phase 2a study: ex vivo serum Ba production; assay type: in vivo, human; details: 14-day treatment, patients A-F
Procedure: (§1) Systemic complement proteins were measured in serum and plasma including serum Ba, plasma Bb, serum C3, serum Factor D, serum C4, and % Fragment C3.

AP activity [2] = experiment: rabbit erythrocyte hemolysis (AP activity in vitro); assay type: cell-based; details: Oryctolagus cuniculus
C3b/iC3b = experiment: Phase 2a study: % fragment C3; assay type: in vivo, human; details: 14-day treatment, patients A-F
Procedure: as §1
C3 levels in serum were measured using a quantitative sandwich enzyme immunoassay technique. A monoclonal antibody specific for human C3 was pre-coated onto a micro-assay plate. Standards and samples were pipetted into the wells and any C3 present was bound by the immobilized antibody. After washing away any unbound substances, an enzyme-linked polyclonal antibody specific for human C3 was added to the wells. Following a wash to remove any unbound antibody-enzyme reagent, a substrate solution was added to the wells and color develops in proportion to the amount of C3 bound in the initial step. The color development was stopped and the intensity of the color was measured. […] Patients E and F show similar results.

[3] = Phase 2a study in C3G / IC-MPGN patients: urine albumin-to-creatinine ratio (ACR); details: for ACR GEOMEAN / ACR MEAN: patients A-F;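 for all read-outs here: urine samples from C3G or IC-MPGN patients read by central lab dipstick on automated urine chemistry analyzer, ratio computed from albumin and creatinine pad absorbance, healthy volunteer urine as control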
Description: 10 patients with either C3 Glomerulopathy (C3G) or Immune-Complex Membranoproliferative Glomerulonephritis (IC-MPGN) are to be enrolled across two dose groups. […] Inclusion criteria include a clinical diagnosis of C3G (C3 glomerulonephritis [C3GN] or dense deposit disease [DDD], the 2 types of C3G) or idiopathic immune-complex membranoproliferative glomerulonephritis (IC-MPGN) by renal biopsy for at least 3 months prior to dosing, with the pathologic diagnosis verified by review of the renal biopsy by the study central pathologist. Patients must have low C3 levels (<50% of the lower limit of normal) and normal or near-normal C4 levels (>90% of the lower limit of normal). Group 1 has enrolled 2 out of 2 planned patients and Group 2 has enrolled 4 out of 8 planned patients.
Albumin and creatinine levels were measured in urine samples by a central reference lab using a urine dipstick method. Urine from non-study healthy volunteers served as control samples. An automatic urinary chemical analyzer was used with a dye for the detection of albumin at >8 mg/dL. Also present on the dipstick was a pad for detection of creatinine that uses the peroxidase activity of the copper-creatinine complex. The ACR ratio was automatically calculated by the analyzer based on the light absorbent readings of the albumin and creatinine test pads.

C4 = experiment: Phase 2a study: C4 levels in serum; assay type: in vivo, human; details: 14-day treatment, patients A-F
Procedure: as §1
(§2) C4 levels in serum were measured using a quantitative sandwich enzyme immunoassay technique. A monoclonal antibody specific for human C4 was pre-coated onto a micro-assay plate. Standards and samples were pipetted into the wells and any C4 present was bound by the immobilized antibody. After washing away any unbound substances, an enzyme-linked polyclonal antibody specific for human C4 was added to the wells. Following a wash to remove any unbound antibody-enzyme reagent, a substrate solution was added to the wells and color develops in proportion to the amount of C4 bound in the initial step. The color development was stopped and the intensity of the color was measured spectrophotometrically at 450 nm.

Factor D = experiment: Phase 2a study: Factor D levels in serum; assay type: in vivo, human; details: 14-day treatment, patients A-F
Procedure: as §1
as §2, with “Factor D levels” for “C4 levels”, “human Complement Factor D” for “human C4”, “any Complement Factor D” for “any C4”, “of Complement Factor D” for “of C4”

AP activity [4] = experiment: Wieslab assay (AP activity in vitro); assay type: biochemical

CC(=O)c1nn(CC(=O)N2C[C@H](F)C[C@H]2C(=O)Nc2cccc(Br)n2)c2ccc(-c3cnc(C)nc3)cc12 [Compound 1, (2S,4R)-1-(2-(3-acetyl-5-(2-methylpyrimidin-5-yl)-1H-indazol-1-yl)acetyl)-N-(6-bromopyridin-2-yl)-4-fluoropyrrolidine-2-carboxamide]
Ex vivo serum Ba production [1]: inhibited | IC50 (AP activity [2]): 0.027 µM | % fragment C3 (C3b/iC3b): reduced | ACR ([3]; Patient A, 100 mg TID, Day 1/0 Hour): 259 mg/mmol | ACR ([3]; Patient A, 100 mg TID, Day 4): 218 mg/mmol | ACR ([3]; Patient A, 100 mg TID, Day 7/0 Hour): 233 mg/mmol | ACR ([3]; Patient A, 100 mg TID, Day 10): 228 mg/mmol | ACR ([3]; Patient A, 100 mg TID, Day 14): 175 mg/mmol | ACR ([3]; Patient A, 100 mg TID, Day 15 Taper): 144 mg/mmol | ACR ([3]; Patient A, 100 mg TID, Day 16 Taper): 143 mg/mmol | ACR ([3]; Patient A, 100 mg TID, Day 17 Taper): 115 mg/mmol | ACR ([3]; Patient A, 100 mg TID, Day 21 Taper): 140 mg/mmol | ACR ([3]; Patient A, 100 mg TID, Follow-Up Day 24): 138 mg/mmol | ACR ([3]; Patient A, 100 mg TID, Follow-Up Day 28): 132 mg/mmol | ACR ([3]; Patient A, 100 mg TID, Follow-Up Day 35): 160 mg/mmol | ACR ([3]; Patient A, 100 mg TID, Follow-Up Day 49): 147 mg/mmol | ACR ([3]; Patient A, 100 mg TID, Screen): 228 mg/mmol | ACR ([3]; Patient B, 100 mg TID, Day 1/0 Hour): 580 mg/mmol | ACR ([3]; Patient B, 100 mg TID, Day 4): 264 mg/mmol | ACR ([3]; Patient B, 100 mg TID, Day 7/0 Hour): 249 mg/mmol | ACR ([3]; Patient B, 100 mg TID, Day 10): 253 mg/mmol | ACR ([3]; Patient B, 100 mg TID, Day 14): 343 mg/mmol | ACR ([3]; Patient B, 100 mg TID, Day 15 Taper): 325 mg/mmol | ACR ([3]; Patient B, 100 mg TID, Day 16 Taper): 329 mg/mmol | ACR ([3]; Patient B, 100 mg TID, Day 17 Taper): 263 mg/mmol | ACR ([3]; Patient B, 100 mg TID, Day 21 Taper): 373 mg/mmol | ACR ([3]; Patient B, 100 mg TID, Follow-Up Day 24): 469 mg/mmol | ACR ([3]; Patient B, 100 mg TID, Follow-Up Day 28): 381 mg/mmol | ACR ([3]; Patient B, 100 mg TID, Follow-Up Day 49): 140 mg/mmol | ACR ([3]; Patient B, 100 mg TID, Screen): 486 mg/mmol | ACR ([3]; Patient C, 200 mg TID, Day 1/0 Hour): 58 mg/mmol | ACR ([3]; Patient C, 200 mg TID, Day 4): 27 mg/mmol | ACR ([3]; Patient C, 200 mg TID, Day 7/0 Hour): 22 mg/mmol | ACR ([3]; Patient C, 200 mg TID, Day 10): 35 mg/mmol | ACR ([3]; Patient C, 200 mg TID, Day 14): 30 mg/mmol | ACR ([3]; Patient C, 200 mg TID, Day 15 Taper): 44 mg/mmol | ACR ([3]; Patient C, 200 mg TID, Day 16 Taper): 26 mg/mmol | ACR ([3]; Patient C, 200 mg TID, Day 17 Taper): 32 mg/mmol | ACR ([3]; Patient C, 200 mg TID, Day 21 Taper): 23 mg/mmol | ACR ([3]; Patient C, 200 mg TID, Follow-Up Day 24): 32 mg/mmol | ACR ([3]; Patient C, 200 mg TID, Follow-Up Day 28): 47 mg/mmol | ACR ([3]; Patient C, 200 mg TID, Follow-Up Day 49): 20 mg/mmol | ACR ([3]; Patient C, 200 mg TID, Screen): 44 mg/mmol | ACR ([3]; Patient C, 200 mg TID, Screen 1): 128 mg/mmol | ACR ([3]; Patient D, 200 mg TID, Day 1/0 Hour): 224 mg/mmol | ACR ([3]; Patient D, 200 mg TID, Day 4): 279 mg/mmol | ACR ([3]; Patient D, 200 mg TID, Day 7/0 Hour): 322 mg/mmol | ACR ([3]; Patient D, 200 mg TID, Day 10): 648 mg/mmol | ACR ([3]; Patient D, 200 mg TID, Day 14): 286 mg/mmol | ACR ([3]; Patient D, 200 mg TID, Day 15 Taper): 328 mg/mmol | ACR ([3]; Patient D, 200 mg TID, Day 17 Taper): 586 mg/mmol | ACR ([3]; Patient D, 200 mg TID, Day 21 Taper): 564 mg/mmol | ACR ([3]; Patient D, 200 mg TID, Follow-Up Day 24): 282 mg/mmol | ACR ([3]; Patient D, 200 mg TID, Follow-Up Day 28): 577 mg/mmol | ACR ([3]; Patient D, 200 mg TID, Follow-Up Day 35): 398 mg/mmol | ACR ([3]; Patient D, 200 mg TID, Follow-Up Day 49): 636 mg/mmol | ACR ([3]; Patient D, 200 mg TID, Screen): 579 mg/mmol | ACR ([3]; Patient D, 200 mg TID, Screen 1): 160 mg/mmol | ACR ([3]; Patient E, 200 mg TID, Day 1/0 Hour): 424 mg/mmol | ACR ([3]; Patient E, 200 mg TID, Day 4): 418 mg/mmol | ACR ([3]; Patient E, 200 mg TID, Day 7/0 Hour): 533 mg/mmol | ACR ([3]; Patient E, 200 mg TID, Day 10): 625 mg/mmol | ACR ([3]; Patient E, 200 mg TID, Day 14): 264 mg/mmol | ACR ([3]; Patient E, 200 mg TID, Day 15 Taper): 327 mg/mmol | ACR ([3]; Patient E, 200 mg TID, Day 16 Taper): 277 mg/mmol | ACR ([3]; Patient E, 200 mg TID, Day 17 Taper): 475 mg/mmol | ACR ([3]; Patient E, 200 mg TID, Day 21 Taper): 257 mg/mmol | ACR ([3]; Patient E, 200 mg TID, Follow-Up Day 24): 303 mg/mmol | ACR ([3]; Patient E, 200 mg TID, Follow-Up Day 28): 307 mg/mmol | ACR ([3]; Patient E, 200 mg TID, Follow-Up Day 49): 327 mg/mmol | ACR ([3]; Patient F, 200 mg TID, Day 4): 152 mg/mmol | ACR ([3]; Patient F, 200 mg TID, Day 7/0 Hour): 94 mg/mmol | ACR ([3]; Patient F, 200 mg TID, Day 14): 184 mg/mmol | ACR ([3]; Patient F, 200 mg TID, Day 15 Taper): 720 mg/mmol | ACR ([3]; Patient F, 200 mg TID, Day 16 Taper): 235 mg/mmol | ACR ([3]; Patient F, 200 mg TID, Day 17 Taper): 475 mg/mmol | ACR ([3]; Patient F, 200 mg TID, Day 21 Taper): 348 mg/mmol | ACR ([3]; Patient F, 200 mg TID, Follow-Up Day 24): 279 mg/mmol | ACR ([3]; Patient F, 200 mg TID, Follow-Up Day 28): 253 mg/mmol | ACR ([3]; Patient F, 200 mg TID, Follow-Up Day 35): 168 mg/mmol | ACR ([3]; Patient F, 200 mg TID, Follow-Up Day 49): 564 mg/mmol | ACR ([3]; Patient F, 200 mg TID, Screen): 308 mg/mmol | reductions in ACR ([3]; Patients A, B, C, E, and F, two-week treatment): approximately 50% | ACR GEOMEAN ([3]; Day 1/0 Hour): 249.6 mg/mmol | ACR MEAN ([3]; Day 1/0 Hour): 306.4 mg/mmol | ACR GEOMEAN ([3]; Day 4): 174.0 mg/mmol | ACR MEAN ([3]; Day 4): 226.3 mg/mmol | ACR GEOMEAN ([3]; Day 7/0 Hour): 164.9 mg/mmol | ACR MEAN ([3]; Day 7/0 Hour): 242.1 mg/mmol | ACR GEOMEAN ([3]; Day 14): 171.4 mg/mmol | ACR MEAN ([3]; Day 14): 213.8 mg/mmol | ACR GEOMEAN ([3]; Day 15 Taper): 232.4 mg/mmol | ACR MEAN ([3]; Day 15 Taper): 314.6 mg/mmol | ACR GEOMEAN ([3]; Day 17 Taper): 224.2 mg/mmol | ACR MEAN ([3]; Day 17 Taper): 324.2 mg/mmol | ACR GEOMEAN ([3]; Day 21 Taper): 197.9 mg/mmol | ACR MEAN ([3]; Day 21 Taper): 284.0 mg/mmol | ACR GEOMEAN ([3]; Follow-Up Day 24): 191.6 mg/mmol | ACR MEAN ([3]; Follow-Up Day 24): 250.6 mg/mmol | ACR GEOMEAN ([3]; Follow-Up Day 28): 217.5 mg/mmol | ACR MEAN ([3]; Follow-Up Day 28): 282.6 mg/mmol | ACR GEOMEAN ([3]; Follow-Up Day 49): 191.1 mg/mmol | ACR MEAN ([3]; Follow-Up Day 49): 305.6 mg/mmol | Serum C4 (C4): remained unchanged | Serum Factor D (Factor D): remained unchanged | IC50 (AP activity [4]): 0.026 µM

— patent publication US20210215714A1, “COMPLEMENT ALTERNATIVE PATHWAY-ASSOCIATED NEPHROPATHY BIOMARKERS” (Achillion Pharmaceuticals, Inc., priority 2018, published 2021)
